“And” between values parts separate entries of the source, which are not always exact repeats. Equal entries are not always repeated.
Experiments:
SARS = type: cell-based; settings: 50 mg·mL; FIG. 4
HBV DNA = experiment: Anti-HBV DNA Assay; type: cell-based, hepatitis B virus; settings: for HBV DNA copies/ml: replicates, listed as HP-S2
HBsAg = experiment: Anti-HBSAg Assay (Procedure B), HBsAg; type: cell-based, hepatitis B virus; parameters: HBsAg Ave.: unit not given here
Procedure: The HBV-producing human hepatoblastoma cell line, Hep G2 2.2.15 is maintained in DMEM supplemented with 10% fetal bovine serum (FBS), 2 mM glutamine, 100 units/ml penicillin, 100 μg/ml streptomycin at 37° C. under 5% CO2 in air.
Samples were dissolved in DMSO at the concentration of 20 mg/mL, then further diluted with DMEM medium to the appropriate concentration.
Hep G2 2.2.15 cells (120 μl) were seeded onto 96-well plates at a concentration of 2×10^5 cells/mL. The cells incubated for 72 h in the medium without G418, after which the test samples (120 μl) were added. Five 3-fold serial dilutions of samples were tested. PBS and 3TC (lamivudine) were included as the negative and positive controls, respectively. The treated cells were incubated at 37° C. for 9 days; with the medium with sample being changed each 3 days, after which the culture supernatant was removed for analysis of both the hepatitis B surface antigen (HBsAg) production and hepatitis B DNA expression.
The HBsAg released into the culture medium in the presence or absence of test material was assayed using the kit manufactured by Shanghai Siic Kehua Biotech Co., Ltd (Shanghai, China). This enzyme immunoassay is based on the capture of HBsAg on monoclonal antibody-coated plates. Four- and twelve-fold dilutions of all culture supernatants collected were assayed in triplicate wells of the kit plate. The percentage inhibition of HBsAg secretion in the presence of the compound was calculated against the negative control (PBS). The IC50 values, the dose that inhibited viruses by 50%, were calculated using non-linear regression analysis (percent survival versus concentration).

Hep G2 2.2.15 cells = experiment: Cytotoxicity Assay (MTT); type: cell-based, human
Procedure: Hep G2 2.2.15 cells (120 μl) were seeded onto 96-well plates at a concentration of 2×10^5 cells/mL. After incubation for 72 h, serial dilutions of the test samples were added to monolayer Hep G2 2.2.15 cells, and culture at 37° C. in a humidified atmosphere of 5% CO2 in air for an additional 9 days, and the medium with sample was changed every 3 days, 10 μL 10% aqueous DMSO was used as control group. After incubation, the supernatant was taken out and 90 μL of DMEM and 10 μL of the 5 mg/ml MTT (3-[4,5-dimethylthiazol-2-yl]-2,5-diphenyltetrazolium bromide) solution was then added to each well, and the plates were incubated for an additional 3 hours. The MTT was removed, and to each well was added 100 μl of DMSO. The plates were agitated on an orbital shaker at 50 rpm at room temperature for 5 min. The optical density of each sample was measured at 490 nm. The percent absorbance of the samples treated with the test material was compared to the untreated sample to calculate the percentage of control. Data are expressed as relative viability, with cytotoxicity indicated by <100% relative viability.

Hep G2.2.15 cells = experiment: % Cell Viability in Anti-HBSAg Assay (Procedure A); type: cell-based, human; settings: 50 μg/ml
Procedure: (§1) The HBV-producing human hepatoblastoma cell line, Hep G2.2.15 was maintained in DMEM supplemented with 10% fetal bovine serum (FBS), 2 mM glutamine, 100 units/ml penicillin, 100 μg/ml streptomycin and 380 μg/ml gentamicin sulfate (G418) at 37° C. under 5% CO2 in air. The Hep G2 parental cells were grown under identical conditions in MEM with Earle's salts without G418.
(§2) Hep G2.2.15 cells (190 μl) were seeded onto microtiter plates at a concentration of 20×10^4 cells/ml. The cells incubated overnight in medium without G418 after which the compound compositions (10 μl) were added. Five 2-fold serial dilutions of extracts or fractions were tested starting at 200 μg/ml final culture concentration. PBS and 3TC (lamivudine) were included as the negative and positive controls, respectively. The treated cells were incubated at 37° C. for 4 days, after which the hepatitis B surface antigen (HBsAg) production in culture supernatants was assayed. The HBsAg released into the culture medium in the presence or absence of test samples was assayed using the BIO-RAD Genetic Systems HBsAg EIA 3.0 kit (Bio-Rad, Redmond, Wash.). This enzyme immunoassay is based on the capture of HBsAg on monoclonal antibody-coated plates. Four- and twelve-fold dilutions of all culture supernatants collected were assayed in triplicate wells of the EIA plate. The percentage inhibition of HBsAg secretion in the presence of the plant samples was calculated against the negative control (PBS).

VSVG/HIV pseudovirions = experiment: VSVG/HIV pseudoviral entry into HUH7 cells; type: cell-based, vesicular stomtatis virus; settings: 100 μg/mL, FIG. 3
HIV = experiment: anti-HIV HOG.R5 assay; type: cell-based; settings: 20 mcg/ml
Ebola = type: cell-based; settings: 50 mg·mL; FIG. 4
[1] = test system: hepatitis B surface antigen (HBsAg) production; experiment: Anti-HBSAg Assay (Procedure A); type: cell-based, hepatitis B virus; settings: 50 μg/ml
Procedure: as §1, §2

Marburg = type: cell-based; parameters: dose or concentration left out as unconfirmed; settings: FIG. 4

SMILES: COC(=O)C1=COC(O)C2C1C(O)C(O)C2(C)O (mixture of isomers) [lamiridosin]
- activity against SARS virus entry (SARS): inactive
- HBV DNA Average (HBV DNA; 9.37 μg/ml): 9.81 × 10^5 copies/ml
- HBV DNA Inhibit (HBV DNA; 9.37 μg/ml): 0.00%
- HBV DNA copies/ml (HBV DNA; 9.37 μg/ml): 1.12E+6 copies/ml and 1.01E+06 copies/ml and 1.22E+06 copies/ml
- HBV DNA Average (HBV DNA; 18.75 μg/ml): 8.90 × 10^5 copies/ml
- HBV DNA Inhibit (HBV DNA; 18.75 μg/ml): 23.90%
- HBV DNA copies/ml (HBV DNA; 18.75 μg/ml): 8.22E+05 copies/ml and 8.73E+05 copies/ml and 9.76E+05 copies/ml
- HBV DNA Average (HBV DNA; 37.5 μg/ml): 6.49 × 10^5 copies/ml
- HBV DNA Inhibit (HBV DNA; 37.5 μg/ml): 44.5%
- HBV DNA copies/ml (HBV DNA; 37.5 μg/ml): 5.06E+05 copies/ml and 8.57E+05 copies/ml and 5.85E+05 copies/ml
- HBsAg Ave. (HBsAg; 9.375 μg/mL): 1.152
- HBsAg Inhibition % (HBsAg; 9.375 μg/mL): 0%
- HBsAg OD1 (HBsAg; 9.375 μg/mL): 1.080
- HBsAg OD2 (HBsAg; 9.375 μg/mL): 1.220
- HBsAg OD3 (HBsAg; 9.375 μg/mL): 1.157
- HBsAg Ave. (HBsAg; 18.75 μg/mL): 1.140
- HBsAg Inhibition % (HBsAg; 18.75 μg/mL): 0%
- HBsAg OD1 (HBsAg; 18.75 μg/mL): 1.208
- HBsAg OD2 (HBsAg; 18.75 μg/mL): 1.105
- HBsAg OD3 (HBsAg; 18.75 μg/mL): 1.107
- HBsAg Ave. (HBsAg; 37.5 μg/mL): 0.765
- HBsAg Inhibition % (HBsAg; 37.5 μg/mL): 29.4%
- HBsAg OD1 (HBsAg; 37.5 μg/mL): 0.797
- HBsAg OD2 (HBsAg; 37.5 μg/mL): 0.744
- HBsAg OD3 (HBsAg; 37.5 μg/mL): 0.755
- anti-HBSAg assay activity (in words) (HBsAg; 37.5 μg/ml, Table 2): inactive
- Toxicity to Hep G2 2.2.15 cells (Table 2) (Hep G2 2.2.15 cells; 75 μg/mL): Toxic
- Toxicity to Hep G2 2.2.15 cells (Table 2) (Hep G2 2.2.15 cells; 150 μg/mL): Toxic
- cytotoxicity to the Hep G2 2.2.15 cells (Hep G2 2.2.15 cells; at doses greater than 50 μg/ml): non-cytotoxic
- % Cell Viability (Hep G2.2.15 cells): 100%
- VSVG/HIV pseudoviral entry blocking (VSVG/HIV pseudovirions): does not block
- activity against HIV (HOG.R5 assay) (HIV): inactive
- activity against Ebola virus entry (Ebola): inactive
- % Control HBSAg [1]: 100%
- % Inhibition [1]: 0%
- anti-HBSAg assay activity (in words) ([1]; Table 1): inactive
- activity against Marburg virus entry (Marburg): inactive
